{"source": "patent US20240140991A1", "about": "“ANTIBIOTIC NATURAL PRODUCT ANALOGUES” (THE QUEEN'S UNIVERSITY OF BELFAST, priority 2021, published 2024)", "key": {"[1]": {"system": "Escherichia coli ATCC 25922", "format": "cell-based", "conditions": "in vitro activity quoted in the in vivo section", "procedure,_shortened": "(§1)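 Broth microdilution in MHB per CLSI; inoculum 2×10^5 CFU mL^−1 from log-phase TSB cultures at OD600 0.5. Plates incubated 16 hours at 37° C with shaking at 220 rpm. MIC is the lowest concentration preventing visible growth.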"}, "K. pneumoniae JS-123": {"system": "K. pneumoniae JS-123", "format": "cell-based, Klebsiella pneumoniae", "conditions": "JS-123", "procedure,_shortened": "as §1"}, "A. baumannii MDR": {"system": "A. baumannii MDR", "format": "cell-based, Acinetobacter baumannii", "conditions": "A. baumannii MDR clinical isolate", "procedure,_shortened": "as §1"}, "P. aeruginosa M-120": {"system": "P. aeruginosa M-120", "format": "cell-based, Pseudomonas aeruginosa", "conditions": "M-120", "procedure,_shortened": "as §1"}, "HepG2 cells": {"system": "HepG2 cells", "assay": "Cytotoxicity MTT assay", "conditions": "HepG2, 128 μg/mL, 24 h", "protocol": "In addition to a single vehicle control, compounds (diluted from DMSO stock) were added to each well to obtain in a final 128 μg/mL concentration (max. final DMSO concentration 0.5%) for all compounds except for oritavancin which was administered at 50 μM. Incubation was done for 24 h at 37° C., 7% CO2. After the incubation, MTT was added to each well at a final concentration of 0.40 mg/mL. The plates were then incubated for 2 h at 37° C., 7% CO2. Medium was carefully removed via suction, and purple formazan crystals were resuspended in 100 μL DMSO. Absorbance was read at 570 nm using a Clariostar plate reader. The data was then analysed with GraphPad Prism software. Technical triplicates for each condition were used, along with biological duplicates."}, "[2]": {"assay": "In vivo tolerability study", "design": "species or system mice (ICR, CD1)", "conditions": "subcutaneous, 3 doses at 8-h intervals, up to 40 mg/kg (total daily dose 120 mg/kg), naive mice", "protocol": "Animal Strain: Mice used in these studies were supplied by Charles River (Margate UK) and were specific pathogen free. The strain of mice used was ICR (also known as CD1 Mice) which is a well characterized outbred murine strain. Mice (male) were 11-15 g on receipt and were allowed to acclimatise for at least 7 days.\nTest compounds: Compound 6 (i.e. laterocidamide) was dissolved in water for injection in which it formed a clear colourless solution. Polymyxin B was dissolved in saline for injection to produce a clear colourless solution.\nTolerability study: The tolerability of compound 6 was assessed in the same mouse strain used for the efficacy studies. […] The mice used in the tolerability study were naïve and were not immunosuppressed or infected."}, "E. coli ATCC 25922": {"system": "E. coli ATCC 25922", "assay": "Mouse thigh abscess (neutropenic thigh infection) efficacy model", "format": "in vivo, mice (ICR, CD1)", "protocol": "Efficacy study: The in vivo efficacy of compound 6 was assessed in a mouse thigh abscess model where both thighs of each mouse were infected with E. coli ATCC 25922 Immunosuppression: Mice were rendered neutropenic with subcutaneous injections of cyclophosphamide at 150 mg/kg 4 days before infection and 100 mg/kg 1 day before infection. The immunosuppression regime leads to neutropenia starting 24 h post administration of the first injection, which continues throughout the study.\nInfection: The bacterial strain used was E. coli ATCC 25922. An aliquot of a previously prepared frozen stock of the strain was thawed and diluted in sterile PBS to the desired inoculum just prior to infection. […]\nEndpoints: 1 h and 20.5 (planned 25) h post-infection, the clinical condition of all animals was assessed prior to humane euthanasia using pentobarbitone overdose, and the thighs were removed and weighed. Thigh samples were homogenized in 3 mL ice cold sterile PBS; the homogenates were quantitatively cultured onto CLED agar and incubated at 37° C. for 18-24 h before colonies were counted.\nData analysis: The data from the culture burdens were analysed using appropriate non-parametric statistical models (Kruskal-Wallis using Conover-Inman to make all pairwise comparisons between groups) with StatsDirect software v. […]"}}, "note": "Positions of bridges follow the written chain, without caps; N, C: chain ends. Non-standard residues stand in square brackets, D forms with d. Residues, ends and D or L forms follow the SMILES beside them. *: point of attachment. Octanoyl(7-Me) = CC(C)CCCCCC(=O)*; dOrn = NCCC[C@@H](N)C(=O)O; Orn = NCCC[C@H](N)C(=O)O; Dap = NC[C@H](N)C(=O)O"}
{"smiles": "CC[C@H](C)[C@@H]1NC(=O)[C@@H](NC(=O)[C@H](Cc2c[nH]c3ccccc23)NC(=O)[C@@H](CCCN)NC(=O)CNC(=O)[C@H](CCCN)NC(=O)[C@@H](CCCN)NC(=O)[C@@H](Cc2c[nH]c3ccccc23)NC(=O)[C@@H](Cc2ccc(O)cc2)NC(=O)[C@@H](CO)NC(=O)CCCCCC(C)C)CNC(=O)CNC(=O)CNC(=O)[C@H](CC(N)=O)NC1=O", "note": "[Laterocidamide, laterocidamide] ({Octanoyl(7-Me)}-[dS][dY][dW][dOrn][Orn]G[dOrn]W[Dap]INGG; lactam 9-C)", "values": [{"measurement": "MIC values against E. coli ATCC 25922", "setting": "[1]", "result": 1, "unit": "µg/mL"}, {"measurement": "Minimum inhibitory concentration (MIC)", "setting": "K. pneumoniae JS-123", "result": "≤0.5", "unit": "µg/mL"}, {"measurement": "Minimum inhibitory concentration (MIC)", "setting": "A. baumannii MDR", "result": 4, "unit": "µg/mL"}, {"measurement": "Minimum inhibitory concentration (MIC)", "setting": "P. aeruginosa M-120", "result": "2 to 4", "unit": "µg/mL"}, {"measurement": "cytotoxicity / cell viability", "setting": "HepG2 cells", "result": "completely non-toxic"}, {"measurement": "cytotoxicity / cell viability", "setting": "HepG2 cells; listed as compound 6", "result": "low cytotoxicity"}, {"measurement": "tolerability", "setting": "[2]; listed as Compound 6", "result": "good tolerability"}, {"measurement": "tolerability", "setting": "[2]; listed as compound 6", "result": "well tolerated"}, {"measurement": "reduction in bacterial load relative to the untreated group", "setting": "E. coli ATCC 25922; 40 mg/kg SC q8h, neutropenic mice, thigh burden", "result": "~5", "unit": "log"}, {"measurement": "dose response of thigh burden", "setting": "E. coli ATCC 25922; 10, 20 and 40 mg/kg SC q8h", "result": "clear dose response"}]}
